Entries after “also recorded” stand apart in the source; their conditions may differ. Numbered stars: 1 amine (or outer) side, 2 acyl side, 3 side chain; on linkers, the order of the positions; unused ones are H or OH. Bridge positions count the residues as written; N and C are the ends. Square brackets hold non-standard residues; d marks the D form. Peptide text beside a SMILES is read from it. * marks the point of attachment. Leu(3R-OH,Nα-propionyl) = CCC(=O)N[C@H](C(=O)*)[C@H](O)C(C)C; X1 = CC(C)[C@@H](O[*:3])[C@H](N[*:1])C(=O)[*:2]; NMeT = CN[C@H](C(=O)O)[C@@H](C)O; dPhLac = O=C(O)[C@H](O)Cc1ccccc1; NMeA = CN[C@@H](C)C(=O)O; NMeDha = C=C(NC)C(=O)O
Key:
[1] = test system: OM cells; experiment: FAKi/MEKi combination cell viability, synergy by Chou-Talalay CI and Bliss score; assay type: cell-based, human
Description: Applicant performed detailed combinatorial analysis achieving ERK pathway inhibition by a clinical MEK inhibitor, trametinib, combined with FAKi (VS-4718) at a series of dilutions of drug combinations. Drug combinations scored as synergistic (i. e., > than additive) are identified by using the most widely used methodologies: the Chou-Talalay combination index (CI) (Chou, 2010; Chou, 1984; and Chou, 2006) and the Bliss independence score (ΔBliss) (Chou, 2010; Chou, 2006; Berenbaum, 1989; Greco, 1995; and Geary, 2013) as Applicant recently described (Yamaguchi et al., 216).

[2] = test system: ERK; experiment: Immunoblot of ERK phosphorylation in UM cells; assay type: cell-based, human; settings: OMM1.3 cells
Description: (§1) Western blot assays were performed as described previously (Feng et al., 2014b). Western blots were developed using Immobilon Western Chemiluminescent HRP substrate (Millipore, MA) according to the manufacturer's instructions.

[3] = test system: SK-MEL-28 cells (BRAF mutant SKCM); experiment: Cell viability assay in SKCM control cell line; assay type: cell-based, human
Description: (§2) HEK293 and HEK293T cells were cultured in DMEM (Sigma-Aldrich Inc., MO) containing 10% FBS (Sigma-Aldrich Inc., MO) and 1× antibiotic/antimycotic solution (Sigma-Aldrich Inc., MO). Culture conditions for UM cells (OMM1.3, OMM1.5, MEL202, Mel270 and 92.1) have been described elsewhere (Schmitt et al., 2007; Zuidervaart et al., 2005). SK-MEL-28 cells were purchased from ATCC and cultured following ATCC recommendations in EMEM containing 10% FBS. VS-4718 (PND-1186) was purchased from MedChemExpress (MCE) pre-prepared as a 10 mM solution in DMSO. FR900359 (FR) was graciously supplied by the lab of Dr. Evi Kostenis.
(§3) Cell growth assays were performed as described previously (Yamaguchi et al., 2016). Cells were cultured in 96-well-plate and treated with drugs for 72 hr. The manufacturer's instructions of Alamar Blue Cell Viability Reagent were followed to complete the assay.

[4] = test system: UM cell lines (92.1, OMM1.3, OMM1.5, Mel270, Mel202; GNAQ mutant); experiment: Cell viability assay (Alamar Blue) in UM cell lines; assay type: cell-based, human
Description: as §2, §3

[5] = test system: FAK; experiment: Immunoblot of FAK phosphorylation (pY397-FAK) in UM cells; assay type: cell-based, human; settings: OMM1.3 / Mel270 cells
Description: as §1

[6] = test system: ERK; experiment: Immunoblot of ERK phosphorylation in Gαq-DREADD expressing HEK293 cells stimulated with CNO; assay type: cell-based, human; settings: CNO stimulation, 1 hr pre-treatment
Description: as §1

[7] = test system: FAK; experiment: Immunoblot of FAK phosphorylation in Gαq-DREADD expressing HEK293 cells stimulated with CNO; assay type: cell-based, human; settings: CNO stimulation, 1 hr pre-treatment
Description: as §1

[8] = test system: UM tumor xenografts; experiment: Human UM tumor xenografts (Mel270, OMM1.3) with VS-4718 in vivo treatment; design: species or system mice
Description: All animal studies were carried out according the University of California San Diego (UCSD) Institutional Animal Care and Use Committee (IACUC)-approved protocol (S15195). Female NOD.Cg-Prkdcscid Il2rgtm1wjl/SzJ mice (commonly known as […], Jackson Laboratory, Maine), 6 to 8 weeks of age and weighing 18 to 20 g, were used in the study of UM cells, housed in appropriate sterile filter-capped cages, and provided food and water ad libitum. All procedures were essentially as previously described (Feng et al., 2014b; Schrage et al., 2015; Vaque et al., 2013). Briefly, exponentially growing cultures were harvested, washed, resuspended in RPMI 1640, and 2×10^6 viable cells were transplanted subcutaneously into the flanks of mice. For tumor growth analysis, tumor volume was assessed as [(LW^2/2); where L and W represent the length and the width of the tumor]. The animals were monitored twice weekly for tumor development. Results of animal experiments were expressed as mean±SEM of a total of tumors analyzed. To administer VS-4718 (Verastem Oncology; Needham, Mass.) to mice, 10 mg/ml VS-4718 was prepared in 0.5% carboxymethyl cellulose (CMC) (C5678, Sigma-Aldrich; St. Louis, Mo.) 0.1% Tween 80 (P1754, Sigma Aldrich; St. Louis, Mo.) in sterile water, 100 mg/kg administered via oral gavage twice daily, control group was treated with vehicle.
The following antibodies were used for immunohistochemistry anti-Ki67 (DAKO) and anti-YAP (CST). Unstained 5 μm paraffin sections were dewaxed in Safeclear II (Fisher Scientific, PA), hydrated through graded alcohols and distilled water, and washed three times with PBS. Antigens were retrieved using or 10 mM citrate buffer boiled in a microwave for 20 min (2 min at 100% power and 18 min at 10% power). The slides were allowed to cool down for 30 min at room temperature, rinsed twice with PBS, incubated in 3% hydrogen peroxide in PBS for 10 min to quench the endogenous peroxidase. […]

[9] = test system: 92.1 xenograft; experiment: 92.1 OM xenografts treated with MEKi, FAKi or both; assay type: in vivo, mice; settings: 92.1 xenografts; trametinib 1 mg/kg QD i.p., VS-4718 50 mg/kg BID p.o.
Description: FIGS. 17A and 17B show potent antitumoral and cytotoxic effects of FAKi/MEKi combination in OM xenografts. […] (FIG. 17B) Quantification of IHC tumor sections stained for BrdU, cleaved-caspase3 (Cl-Casp3), pERK1/2, and YAP. For each panel, the bars from left to right are control, MEKi, FAKi and MEKi+FAKi. Data are mean±SEM (7 mice/group), *p<0.05;**p<0.01; ***p<0.001; n. s. not significant.

[10] = test system: YAP-signature genes; experiment: RNA-seq and Gene Set Enrichment Analysis of UM cells treated with FAKi; assay type: cell-based, human; settings: OMM1.3, 1 μM, 2 hr
Description: FAK is at the intersection of multiple signaling pathways that promote cancer progression (Sulzmaier et al., 2014), but it is not clear which downstream targets of FAK play a critical role in UM. As an approach to identify key downstream targets of the Gαq− FAK signaling axis, Applicant performed transcriptomic RNA-sequencing on UM cells treated with FAKi (i.e., FAK inhibitor), and performed Gene Set Enrichment Analysis (GSEA) (Subramanian et al., 2005) to characterize the transcriptional effects of inhibiting Gαq and FAK at the pathway level using over 10,000 gene sets from the MSigDB (Molecular Signatures Database), including two sub-collections of oncogenic signatures and hallmark gene sets that Applicants added to the database (Liberzon et al., 2015). […] These include the downregulation of genes described as stimulated by KRAS and EGFR and cytokines such as IL21 and IL15, consistent with the likely role in the activation of growth promoting pathways by FAK (Sulzmaier et al., 2014). […] In both cases, FAK inhibition or knockdown reduced YAP pY357 and increased pS127, and reduced mRNA levels of YAP targets and YAP activity measured by luciferase reporter assay (FIGS. 7A-7E), similar to UM cells.

[11] = test system: Hippo pathway components (YAP, LATS1, MOB1, MST1); experiment: Immunoblot / immunoprecipitation of YAP and Hippo pathway components in UM cells; assay type: cell-based, human
Description: as §1
Cells were lysed with IP lysis buffer [10 mM Tris-Cl (pH 8.0), 150 mM NaCl, 1 mM EDTA, 0.3% CHAPS, 50 mM NaF, 1.5 mM Na3VO4, protease inhibitor (Thermo Scientific, CO), 1 mM DTT, 1 mM PMSF], and centrifuged at 16,000 g for 5 min at 4° C. Supernatants were incubated with first antibody for 1 hr at 4° C., and protein G or protein A conjugated resin for another 1 hr. Resins were then washed 3 times with lysis buffer and boiled in SDS-loading buffer.

[12] = test system: YAP-target genes CTGF and CYR61; experiment: qPCR of YAP-target genes CTGF and CYR61 in UM cells; assay type: cell-based, human; settings: 1 μM, 2 hr
[13] = test system: OMM1.3 cells; experiment: Immunoblot of cleaved PARP (apoptosis) in UM cells; assay type: cell-based, human; settings: OMM1.3, 36 hr
Description: as §1

[14] = test system: YAP; experiment: YAP nuclear/cytoplasmic localization (immunofluorescence, fractionation western blot) in UM cells; assay type: cell-based, human; settings: OMM1.3, 1 μM
Description: Cells cultured on coverslips were washed with PBS, fixed with 3.7% formaldehyde in phosphate-buffered saline (PBS) for 30 min, and permeabilized using 0.05% Triton X-100 for 10 min. Fixed cells were blocked with 3% FBS-containing PBS for 30 min, and incubated with YAP (Cell signaling technology, MI) antibody (in 3% FBS-PBS otherwise stated) for 1 hr at room temperature. The reaction was visualized with Alexa-labeled secondary antibodies (Invitrogen, CA). Samples were mounted in PBS buffer containing Hoechst 33342 (Molecular Probes, OR) for nuclear staining. Images were acquired with an Axio Imager Z1 microscope equipped with ApoTome system controlled by ZEN 2012 software (Carl Zeiss, NY).
Subcellular fractionated lysates were generated using NE-PER Nuclear and Cytoplasmic Extraction Reagents (Thermo Scientific, CO) following manufacturer instructions.

[15] = test system: OMM1.3 cells; experiment: Colony formation assay in semisolid media (3D culture); assay type: cell-based, human; settings: OMM1.3, semisolid media
Description: 3-dimensional cultures were performed as described previously (Tancioni et al., 2015). Briefly, 10,000 cells were embedded in 1% methylcellulose diluted in growth media and plated onto 6-well poly-hydroxyethyl methacrylic acid (poly-HEMA)-coated plates.

[16] = after prolonged use; cited from earlier work

Compound: CNS(=O)(=O)Nc1nccc(Cc2c(C)c3ccc(Oc4ncccn4)cc3oc2=O)c1F [CH5126766]
- synergy of growth inhibition in combination with FAKi VS-4718 ([1]; combined with VS-4718): synergistic anti-proliferative effects
- synergy of anti-proliferative effect in combination with VS-6063 (defactinib) ([1]; combined with VS-6063): synergistic anti-proliferative effects

Compound: C=C1C(=O)N[C@@H](C)C(=O)N(C)[C@@H](C)C(=O)N[C@@H]([C@H](OC(=O)[C@@H](NC(=O)CC)[C@H](O)C(C)C)C(C)C)C(=O)N(C)[C@@H]([C@@H](C)OC)C(=O)O[C@H](C(C)C)[C@H](NC(C)=O)C(=O)O[C@H](Cc2ccccc2)C(=O)N1C [FR900359] (Ac-[X1][dPhLac][NMeDha]A[NMeA][X1](Leu(3R-OH,Nα-propionyl))[NMeT](Me); ester 1-C)
- ERK activation in UM cells [2]: diminished
- SKCM cell proliferation, result in words [3]: only in UM cells
- UM cell viability / proliferation, result in words ([4]; UM cell lines): inhibition of cell proliferation
- FAK activation (pY397-FAK) in UM cells [5]: diminished

Compound: COc1ccc2c(c1)CC[C@@H]1[C@@H]2CC[C@]2(C)[C@@H](NCCCCCCN3C(=O)C=CC3=O)CC[C@@H]12 [U73122]
- ERK activation by Gαq-DREADD in HEK293 cells [6]: abolished
- FAK activation by Gαq-DREADD in HEK293 cells [7]: did not have an impact

Compound: CNC(=O)c1ccccc1Nc1cc(Nc2ccc(N3CCOCC3)cc2OC)ncc1C(F)(F)F [VS-4718]
- cytoplasmic retention of YAP in tumors ([8]; Mel270 tumors): clearly increased
- cell proliferation in UM tumors (Ki67) ([8]; two UM tumor models (Mel270, OMM1.3)): reduces
- UM tumor size ([8]; two UM tumor models (Mel270, OMM1.3), 100 mg/kg oral gavage twice daily): reduces
- antitumoral profile in OM xenografts (cl-Casp3) [9]: cytostatic profile
- expression of YAP-signature genes (RNA-seq, GSEA) [10]: significant downregulation
- MOB1/LATS interaction [11]: enhanced
- p909-LATS1 [11]: increase
- p1079-LATS1 [11]: increase
- p-MST1 [11]: did not observe an increase
- pY26 MOB1 ([11]; 0-10 μM, 2 hr): dose-dependent decrease
- YAP phosphorylation on serine 127 (pS127-YAP) ([11]; listed as FAKi): increase
- YAP phosphorylation on tyrosine 357 (Y357) ([11]; listed as FAKi): repressed; also recorded: diminished phosphorylation
- total YAP protein level ([11]; long-term (up to 36 hours)): downregulation
- mRNA of YAP-target genes CTGF and CYR61 (qPCR) [12]: significant reduction
- cleaved PARP (UM apoptosis) [13]: accumulation of cleaved PARP; also recorded: increased cleaved PARP
- EC50 ([3]; Homo sapiens, SK-MEK-28 (BRAF mutant), control): > 10 µM
- YAP nuclear accumulation [14]: clearly diminished
- EC50 ([4]; Homo sapiens, 92.1, OMM1.3, OMM1.5, Mel270, Mel202, 72 hr, read-out: EC50, sensitivity of UM cell lines to FAK inhibition (cell viability)): ~1000 nM
- FAK activation (pY397-FAK) in UM cells [5]: inhibited FAK rapidly; also recorded: decrease in pY397-FAK
- colony formation ability of UM cells [15]: nearly abolished the colony formation ability

Compound: C[C@@H](N)[C@H]1CC[C@H](C(=O)Nc2ccncc2)CC1 [Y-27632]
- FAK activation by Gαq-DREADD in HEK293 cells [7]: repressed FAK activation
- FAK activation (pY397-FAK) in UM cells [5]: repressed FAK activation

Compound: Cc1ccc2c(c1)C(=O)C1(O)CCN(c3ccccc3)C1=N2 (stereo not drawn) [blebbistatin]
- FAK activation by Gαq-DREADD in HEK293 cells [7]: repressed FAK activation
- FAK activation (pY397-FAK) in UM cells [5]: repressed FAK activation

Compound: verteporfin
- systemic toxicity [16]: high systemic toxicities
